Results taken from ChEMBL document CHEMBL1146157, “Synthesis and SAR of 2-(4-fluorophenyl)-3-pyrimidin-4-ylimidazo[1,2-a]pyridine derivatives as anticoccidial agents” (Bioorg Med Chem Lett, 2006).

How the values were obtained:
Eimeria acervulina [1] = assay: Antiparasitic activity against Eimeria acervulina in chicken at 25 ppm in feed assessed as percent reduction in oocyst; assay type: functional; parameters: scale not given: the % may be the effect or the level left
Eimeria tenella [2] = assay: Antiparasitic activity against Eimeria tenella in chicken at 25 ppm in feed assessed as percent reduction in oocyst; assay type: functional; parameters: scale not given: the % may be the effect or the level left
[3] = target: cGMP-dependent protein kinase (Eimeria tenella, UniProt Q8MMZ8); assay: Inhibition of Eimeria tenella PKG
Chain of cGMP-dependent protein kinase (Q8MMZ8 whole entry): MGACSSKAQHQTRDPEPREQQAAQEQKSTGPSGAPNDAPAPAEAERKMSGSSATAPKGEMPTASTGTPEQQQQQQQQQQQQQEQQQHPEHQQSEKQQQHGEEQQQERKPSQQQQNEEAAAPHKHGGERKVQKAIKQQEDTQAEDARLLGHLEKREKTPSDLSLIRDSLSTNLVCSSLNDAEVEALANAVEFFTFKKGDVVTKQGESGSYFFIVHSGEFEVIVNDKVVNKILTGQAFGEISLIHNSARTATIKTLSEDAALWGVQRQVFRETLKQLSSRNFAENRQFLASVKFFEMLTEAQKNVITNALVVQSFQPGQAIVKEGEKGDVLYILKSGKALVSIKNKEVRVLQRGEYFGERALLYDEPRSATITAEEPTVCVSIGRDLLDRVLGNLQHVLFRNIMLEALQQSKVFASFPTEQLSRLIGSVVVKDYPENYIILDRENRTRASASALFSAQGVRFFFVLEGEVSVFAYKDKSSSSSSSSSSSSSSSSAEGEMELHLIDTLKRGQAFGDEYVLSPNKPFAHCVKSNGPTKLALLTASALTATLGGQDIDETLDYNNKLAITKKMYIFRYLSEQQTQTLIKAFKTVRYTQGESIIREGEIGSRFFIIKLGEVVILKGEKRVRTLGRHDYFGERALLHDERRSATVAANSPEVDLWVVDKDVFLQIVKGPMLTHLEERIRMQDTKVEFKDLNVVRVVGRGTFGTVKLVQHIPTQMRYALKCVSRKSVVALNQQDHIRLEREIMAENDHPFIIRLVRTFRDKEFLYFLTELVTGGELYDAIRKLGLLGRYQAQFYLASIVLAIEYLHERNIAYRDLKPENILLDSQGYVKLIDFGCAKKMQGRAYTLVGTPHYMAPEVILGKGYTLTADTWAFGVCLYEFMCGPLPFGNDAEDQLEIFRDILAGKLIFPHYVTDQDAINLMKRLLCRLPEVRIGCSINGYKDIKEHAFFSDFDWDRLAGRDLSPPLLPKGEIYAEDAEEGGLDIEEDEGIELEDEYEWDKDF

Eimeria tenella [4] = assay: Antiparasitic activity against Eimeria tenella in chicken at 50 ppm in feed assessed as percent reduction in oocyst; assay type: functional; parameters: scale not given: the % may be the effect or the level left
Eimeria acervulina [5] = assay: Antiparasitic activity against Eimeria acervulina in chicken at 50 ppm in feed assessed as percent reduction in oocyst; assay type: functional; parameters: scale not given: the % may be the effect or the level left

SMILES: CN(C)Cc1ccn2c(-c3ccnc(N(C)Cc4ccccc4)n3)c(-c3ccc(F)cc3)nc2c1
- Activity (Eimeria acervulina [1]): 50%
- Activity (Eimeria tenella [2]): <50%
- IC50 [3]: 3 nM

SMILES: CN(C)Cc1ccn2c(-c3ccnc(OCc4ccccc4)n3)c(-c3ccc(F)cc3)nc2c1
- Activity (Eimeria tenella [4]): <50%
- Activity (Eimeria acervulina [5]): <50%
- IC50 [3]: 0.27 nM

SMILES: C[C@@H](Nc1nccc(-c2c(-c3ccc(F)cc3)nc3cc(CN(C)C)ccn23)n1)c1ccccc1
- Activity (Eimeria acervulina [1]): >=80%
- Activity (Eimeria tenella [2]): >=80%
- IC50 [3]: 0.32 nM

SMILES: C[C@H](Nc1nccc(-c2c(-c3ccc(F)cc3)nc3cc(CN(C)C)ccn23)n1)c1ccccc1
- Activity (Eimeria acervulina [1]): <50%
- Activity (Eimeria tenella [2]): >=80%
- IC50 [3]: 0.47 nM
